Results published in publication PMC11811597, “Phenomics‐Based Discovery of Novel Orthosteric Choline Kinase Inhibitors” (Angewandte Chemie (International Ed. in English), 2025).

Key:
PRCP = test: Competitive affinity-based chemoproteomics (UNC0965 matrix), PBMC cell extract; type: binding, human; conditions: 20 µM competitor, n=2
Procedure: (§1) described.[2] Lysates were precleared with bead slurry (100 μL) for 30 min at 4 °C and then treated with UNC0638 or UNC0737 (20 μM) or DMSO control for 30 min at 4 °C followed by incubation with affinity matrix for 2 h at 4 °C. Affinity matrices were washed with buffer A (5 mL) and proteins eluted with 100 μL of 2x Laemmli sample buffer, 100 mM DTT, in PBS and heating for 10 min at 90 °C.
(§2) Eluents (70 µL) were diluted in 0.1 M Tris (pH 7.8) to 200 µL, reduced with 5 mM DTT for 30 min at RT, and alkylated with 20 mM iodoacetamide for 30 min at RT in the dark. Proteins were precipitated by sequential addition of MeOH (600 µL), CHCl3 (150 µL) and H2O (450 µL), pelleted (17,000 × g, 5 min), washed with further MeOH (2 × 600 µL), and re-pelleted. Air dried pellets were resuspended in 50 μL 6 M urea (pH 7.8) by vortexing and then diluted with 250 μL H2O before adding 1 µg trypsin for overnight incubation at 37 °C. The digests were acidified with FA (1% v/v final concentration), desalted using SOLA HRP SPE Cartridges (Thermo Fisher), eluted with 69% v/v MeCN, 0.1% v/v FA in H2O (600 μL) and dried in vacuo. Dried peptides were stored at -20 °C before resuspension in 2% v/v MeCN, 0.1% v/v FA in H2O (20 μL) for LC-MS/MS analysis.
(§3) LC-MS/MS Data Acquisition
(§4) Digested samples were analysed by nano-UPLC–MS/MS using a Dionex Ultimate 3000 nano UPLC fitted with an EASY spray column (75 μm × 500 mm, 2 μm particle size, Thermo Scientific), coupled to an Orbitrap Q Exactive instrument. A 60 min gradient of 0.1% (v/v) formic acid in 5 % (v/v) DMSO to 0.1% (v/v) formic acid with 35% (v/v) acetonitrile in 5 % (v/v) DMSO at a flow rate of 250 nL min−1 was used. The instrument was operated in a data-dependant mode, with survey scans acquired at a resolution of 70,000 at 200 m/z and the 15 most abundant precursors selected for HCD fragmentation with an AGC target of […] ions.
(§5) Raw data was processed using MaxQuant[3] version 2.0.1.0 and the reference complete human proteome FASTA file (UniProt, downloaded 05.08.21). Label Free Quantification (LFQ) and Match Between Runs were selected; Cysteine carbamidomethylation was selected as a fixed modification, and methionine oxidation and asparagine deamidation as variable modifications. Default settings for identification and quantification were used. Specifically, a minimum peptide length of 7, a maximum of 2 missed cleavage sites, and a maximum of 5 labelled amino acids per peptide were allowed.
(§6) Through selection of the ‘trypsin/P’ general setting, peptide bond cleavage at arginine or lysine (followed by any amino acid) was considered during in silico digest of the reference proteome. […]
(§7) mode selected for both identification and quantification of proteins (razor peptides are uniquely assigned to protein groups and not to individual proteins).

PWP1 = test: as above; type: binding, human; conditions: 20 µM competitor, n=2
Procedure: as §1, §2, §3, §4, §5, §6, §7

[1] = test system: MCF7, MDA‐MB‐231, HEK293, HepG2, U2OS and K562 cells; test: 72 h cell viability assay (Cell Titer-Glo); type: cell-based, human; conditions: 0-50 μM
Source text: We compared morphological fingerprints of multiple parameters to assess overall biological similarity (Biol. Sim.) (Figure 1B).
A-366 and UNC0638 were purchased from Tocris. ARIAD and V-11-07-11 were purchased from Wuxi Apptec. UNC0737 and UNC0965 were synthesised as previously described.[1] Hemicholinium-3 and pyruvate kinase/lactic dehydrogenase enzymes were purchased from Sigma Aldrich. Aqueous and organic solvents were MS-grade and acquired by Sigma Aldrich unless stated otherwise.
MDA-MB-231, MCF7 and HEK293 cells were cultured in DMEM (Gibco, #11965092) supplemented with 10% FBS. K562 were cultured in IMDM (Gibco, #12440053) supplemented with 10% FBS. HepG2 were cultured in MEM (Gibco, #11095080) supplemented with 10 % FBS. […]
cultured in McCoy’s 5A (Sigma, M8403) supplemented with 10 % FBS and 1x GlutaMAX (Gibco, #35050061). Cells were maintained at 37 °C in a humidified 5% CO2 atmosphere. Peripheral blood mononuclear cells (PBMC) were isolated from healthy blood donors by density centrifugation.
MDA-MB-231, MCF7 or HEK293 cells (7.5 × 10^4 cells/mL) were each plated into x1 white 384-well polystyrene plate (Greiner Bio-One Ltd). A-366, […] and UNC0737 were directly added to each well of the cell line plates, at final concentrations 0-50 μM and incubated for 72 h at 37 °C/ 5% CO2.
Cell Titer-Glo® reagent was added to each well and total luminescence readings were performed within 15 min using the PHERAstar FSX (BMG Labtech). The cell viability results were normalised to the DMSO control and plotted using the sigmoidal dose-response (variable slope) equation in […]
Chemical Proteomics Drug Pulldown
For lysate generation MCF7 cells were grown until approximately 80% confluency before being pelleted and washed with PBS. […]
MDA-MB-231, […], HepG2, U2OS and K562 cells following treatment with A-366, UNC0638 and UNC0737 after 72 h measured by Cell Titer Glo assay (n=3). […]

Compound	FC vs DMSO (log2 competition), PRCP (PRCP)	FC vs DMSO (log2 competition), PWP1 (PWP1)	effect on cell viability [1]
COc1cc2c(NC3CCN(C(C)C)CC3)nc(C3CCCCC3)nc2cc1OCCCN1CCCC1 [UNC0638]	-3.268	-2.002	antiproliferative effects
COc1cc2c(N(C)C3CCN(C(C)C)CC3)nc(C3CCCCC3)nc2cc1OCCCN1CCCC1 [UNC0737]	-0.4338	-0.1275	antiproliferative effects
